The record followed here is patent US20180168157A1, “ANTIMICROBIAL COMPOSITIONS COMPRISING FOOD APPROVED ANTIMICROBIALS AND ZINC PYRITHIONE” (Janssen Pharmaceutica NV, priority 2015, published 2018).

Common to all, as to assay type: cell-based
Test [1] relates to Escherichia coli LMG 8063. The test is described as follows: Poison plate assay (MIC and synergy index), Escherichia coli. The note with it: ppm total active ingredient, nutrient broth pH 6.8, 28° C., evaluation 7 days after inoculation. The text has this: (§1) Experiment 1: Poison Plate Assay
(§2) In the test combinations above, product A is component (I), i.e. zinc pyrithione, and product B is a component (II), i.e. either sodium sulfite (II-a) or lysozyme (II-b).
(§3) Concentration series of total actives: a series of 24 concentrations increasing with steps of ⅓:0.27-0.35-0.47-0.63-0.84-1.13-1.50-2.00-2.67-3.56-4.75-6.33-8.44-11.25-15.00-20.00-26.70-35.60-47.46-63.28-84.38-112.50-150.00-200.00 ppm. • Culture medium: bacteria: nutrient broth (3 g beef extract and 5 g peptone in 1 liter deionised water, pH=6.8.) • Experimental set up: 96-well plates containing 300 μl pf inoculum plus 0.75 μl of a 400× concentrated stock solution of the test compounds per well. • Species of test organisms: Escherichia coli LMG 8063 • Staphylococcus aureus LMG 8195/ATCC 6538P • Inoculum: the nutrient medium is inoculated with an actively growing liquid culture of the test bacteria. • Culture conditions: 28° C., 70% relative humidity, incubation in darkness. • Evaluation: 7 days after inoculation. […]

Test [2] deals with Staphylococcus aureus LMG 8195/ATCC 6538P. The test is described as follows: Poison plate assay (MIC and synergy index), Staphylococcus aureus. The settings on record: ppm total active ingredient, nutrient broth pH 6.8, 28° C., evaluation 7 days after inoculation.
Excerpt: as §1, §2, §3

The subject of test [3] is Saccharomyces cerevisiae CBS 8803. The test is described as follows: Poison plate assay (MIC and synergy index), Saccharomyces cerevisiae. The note with it: ppm total active ingredient, half strength potato dextrose broth, 28° C., evaluation 7 days after inoculation. The source says: wherein: • QA is the concentration of compound A in ppm, acting alone, which produced an end point (e.g. MIC), • Qa is the concentration of compound A in ppm, in the mixture, which produced an end point (e.g. MIC), • QB is the concentration of compound B in ppm, acting alone, which produced an end point (e.g. MIC), • Qb is the concentration of compound B in ppm, in the mixture, which produced an end point (e.g. MIC).
When the Synergy Index is greater than 1.0, antagonism is indicated. When the SI is equal to 1.0, additivity is indicated.

As for `[O-][n+]1ccccc1[S][Zn][S]c1cccc[n+]1[O-]` [zinc pyrithione, bis(2-pyridylthio)zinc 1,1′dioxide], the “MIC-values in ppm (minimum inhibitory concentration)” value in test [1] is 3.60 ppm; in test [2], 2.00 ppm; in test [3] it was 2.00 ppm.
As for lysozyme, the “MIC-values in ppm (minimum inhibitory concentration)” value in test [2] is recorded as 267 ppm.
With `O=S([O-])[O-].[Na+].[Na+]` [sodium sulfite], the “MIC-values in ppm (minimum inhibitory concentration)” value in test [1] is reported as 267 ppm.
For the compound `O=S([O-])O.[Na+]` [sodium bisulfite], in test [3], the “MIC-values in ppm (minimum inhibitory concentration)” value amounted to 267 ppm.
